According to patent publication US9527867B2, “Antibacterial biaromatic derivatives” (Actelion Pharmaceuticals Ltd., priority 2013, dated 2016):
Converted amounts (≈) assume the structure as drawn.

Key:
Experiment in all cases: Bacterial growth minimal inhibitory concentration (broth microdilution, CLSI M7-A7)
Assay type in all cases: cell-based
[1] = test system: Staphylococcus aureus ATCC29213; details: methicillin-sensitive and quinolone-sensitive strain; for MIC for S. aureus ATCC29213: cation-adjusted Mueller-Hinton Broth; for MIC: Staphylococcus aureus, ATCC29213, cation-adjusted Mueller-Hinton Broth, read-out: MIC for S. aureus ATCC29213
Description: (§1) Minimal Inhibitory Concentrations (MICs; mg/L) were determined in cation-adjusted Mueller-Hinton Broth by a microdilution method following the description given in “Methods for Dilution Antimicrobial Susceptibility Tests for Bacteria that Grow Aerobically”, Approved standard, 7th ed., Clinical and Laboratory Standards Institute (CLSI) Document M7-A7, Wayne, Pa., USA (2006).
(§2) All Example compounds were tested against several Gram positive and Gram negative bacteria. […] Staphylococcus aureus A798, Enterococcus faecium A949 and Acinetobacter baumannii T6474 are multiply-resistant strains (in particular quinolone-resistant), while Moraxella catarrhalis A894 is a quinolone-sensitive strain and Staphylococcus aureus ATCC29213 is a methicillin-sensitive and quinolone-sensitive strain.

[2] = test system: Moraxella catarrhalis A894; details: quinolone-sensitive strain; for MIC for M. catarrhalis A894: cation-adjusted Mueller-Hinton Broth; for MIC: Moraxella catarrhalis, A894, cation-adjusted Mueller-Hinton Broth
Description: as §1, §2

[3] = test system: Enterococcus faecium A949; details: multiply-resistant strain (in particular quinolone-resistant); for MIC for E. faecium A949: cation-adjusted Mueller-Hinton Broth; for MIC: Enterococcus faecium, A949, cation-adjusted Mueller-Hinton Broth, read-out: MIC for E. faecium A949
Description: as §1, §2

[4] = test system: Staphylococcus aureus A798; details: multiply-resistant strain (in particular quinolone-resistant); for MIC for S. aureus A798: cation-adjusted Mueller-Hinton Broth; for MIC: Staphylococcus aureus, A798, cation-adjusted Mueller-Hinton Broth, read-out: MIC for S. aureus A798
Description: as §1, §2

[5] = test system: Acinetobacter baumannii T6474; details: multiply-resistant strain (in particular quinolone-resistant); for MIC for A. baumannii T6474: cation-adjusted Mueller-Hinton Broth; for MIC: Acinetobacter baumannii, T6474, cation-adjusted Mueller-Hinton Broth
Description: as §1, §2

| Molecule | MIC for S. aureus ATCC29213 [1] | MIC for M. catarrhalis A894 [2] | MIC for E. faecium A949 [3] | MIC for S. aureus A798 [4] | MIC for A. baumannii T6474 [5] | MIC [1] | MIC [2] | MIC [3] | MIC [4] | MIC [5] |
| --- | --- | --- | --- | --- | --- | --- | --- | --- | --- | --- |
| 6-(5-{2-[(3′-methoxy-biphenyl-3-ylmethyl)-amino]-ethyl}-2-oxo-oxazol-3-yl)-4H-pyrido[3,2-b][1,4]oxazin-3-one [Example 34] | 0.125 µg/mL | ≦0.016 mg/L | 1 µg/mL | 0.125 µg/mL | 0.25 µg/mL |  |  |  |  |  |
| 6-((R)-5-{2-[3-(6-methoxy-pyridin-2-yl)-benzylamino]-ethyl}-2-oxo-oxazolidin-3-yl)-4H-pyrido[3,2-b][1,4]oxazin-3-one [Example 31] | 0.25 µg/mL | ≦0.016 mg/L | 2 µg/mL | 0.25 µg/mL | 0.5 µg/mL |  |  |  |  |  |
| O=C1COc2ccc(N3C[C@H](CCNCc4cccc(-c5cccc(N6CCC(O)C6)n5)c4)OC3=O)nc2N1 (mixture of isomers) [Example 57, 6-[(S)-5-(2-{3-[6-((RS)-3-hydroxy-pyrrolidin-1-yl)-pyridin-2-yl]-benzylamino}-ethyl)-2-oxo-oxazolidin-3-yl]-4H-pyrido[3,2-b][1,4]oxazin-3-one] |  |  |  |  |  | 2 µg/mL | 0.25 µg/mL | 8 µg/mL | 1 µg/mL | 2 µg/mL |
| O=C1COc2ccc(N3C[C@H](CCNCc4cccc(-c5cccc(OC[C@@H]6C[C@@H](O)[C@@H](O)C6)n5)c4)OC3=O)nc2N1 (racemic) [Example 69, 6-[(S)-5-(2-{3-[6-((1rs,3R,4S)-3,4-dihydroxy-cyclopentylmethoxy)-pyridin-2-yl]-benzylamino}-ethyl)-2-oxo-oxazolidin-3-yl]-4H-pyrido[3,2-b][1,4]oxazin-3-one] | 1 µg/mL | 0.063 µg/mL | 8 µg/mL | 0.25 µg/mL | 1 µg/mL |  |  |  |  |  |
| COc1cccc(-c2cccc(CNCC[C@@H]3CN(c4ccc5c(c4)NC(=O)CS5)C(=O)O3)c2)c1 [Example 1, 6-((R)-5-{2-[(3′-methoxy-biphenyl-3-ylmethyl)-amino]-ethyl}-2-oxo-oxazolidin-3-yl)-4H-benzo[1,4]thiazin-3-one] |  |  |  |  |  | 0.25 µg/mL (≈ 0.511 µM) | 0.031 µg/mL (≈ 0.0633 µM) | 2 µg/mL (≈ 4.08 µM) | 0.25 µg/mL (≈ 0.511 µM) | 0.5 µg/mL (≈ 1.02 µM) |
| COc1cc(C#N)cc(-c2cccc(CNCC[C@@H]3CN(c4ccc5c(c4)NC(=O)CS5)C(=O)O3)c2)n1 [Example 2, 2-methoxy-6-[3-({2-[(R)-2-oxo-3-(3-oxo-3,4-dihydro-2H-benzo[1,4]thiazin-6-yl)-oxazolidin-5-yl]-ethylamino}-methyl)-phenyl]-isonicotinonitrile] |  |  |  |  |  | ≤ 0.016 µg/mL | ≤ 0.016 µg/mL | 0.5 µg/mL (≈ 0.97 µM) | ≤ 0.016 µg/mL | 0.25 µg/mL (≈ 0.485 µM) |
| N#Cc1cccc(-c2cccc(CNCC[C@H]3CN(c4ccc5c(c4)NC(=O)CS5)C(=O)O3)c2)c1 [Example 3, 3′-({2-[(S)-2-oxo-3-(3-oxo-3,4-dihydro-2H-benzo[1,4]thiazin-6-yl)-oxazolidin-5-yl]-ethylamino}-methyl)-biphenyl-3-carbonitrile] |  |  |  |  |  | 0.063 µg/mL (≈ 0.13 µM) | ≤ 0.016 µg/mL | 0.5 µg/mL (≈ 1.03 µM) | 0.063 µg/mL (≈ 0.13 µM) | 0.125 µg/mL (≈ 0.258 µM) |
| COc1cccc(-c2cccc(CNCC[C@H]3CN(c4ccc5c(n4)NC(=O)CO5)C(=O)O3)c2)c1 [Example 4, 6-((S)-5-{2-[(3′-methoxy-biphenyl-3-ylmethyl)-amino]-ethyl}-2-oxo-oxazolidin-3-yl)-4H-pyrido[3,2-b][1,4]oxazin-3-one] |  |  |  |  |  | 0.25 µg/mL (≈ 0.527 µM) | 0.031 µg/mL (≈ 0.0653 µM) | 4 µg/mL (≈ 8.43 µM) | 0.25 µg/mL (≈ 0.527 µM) | 0.5 µg/mL (≈ 1.05 µM) |
| N#Cc1cccc(-c2cccc(CNCC[C@@H]3CN(c4ccc5c(c4)NC(=O)CS5)C(=O)O3)c2)c1 [Example 5, 3′-({2-[(R)-2-oxo-3-(3-oxo-3,4-dihydro-2H-benzo[1,4]thiazin-6-yl)-oxazolidin-5-yl]-ethylamino}-methyl)-biphenyl-3-carbonitrile] |  |  |  |  |  | 0.063 µg/mL (≈ 0.13 µM) | ≤ 0.016 µg/mL | 1 µg/mL (≈ 2.06 µM) | 0.063 µg/mL (≈ 0.13 µM) | 0.125 µg/mL (≈ 0.258 µM) |
| COc1ccc(-c2cccc(CNCC[C@@H]3CN(c4ccc5c(c4)NC(=O)CS5)C(=O)O3)c2)cc1 [Example 6, 6-((R)-5-{2-[(4′-methoxy-biphenyl-3-ylmethyl)-amino]-ethyl}-2-oxo-oxazolidin-3-yl)-4H-benzo[1,4]thiazin-3-one] |  |  |  |  |  | 1 µg/mL (≈ 2.04 µM) | 0.063 µg/mL (≈ 0.129 µM) | 4 µg/mL (≈ 8.17 µM) | 1 µg/mL (≈ 2.04 µM) | 4 µg/mL (≈ 8.17 µM) |
| COc1cc(-c2cccc(CNCC[C@@H]3CN(c4ccc5c(c4)NC(=O)CS5)C(=O)O3)c2)ccc1O [Example 7, 6-((R)-5-{2-[(4′-hydroxy-3′-methoxy-biphenyl-3-ylmethyl)-amino]-ethyl}-2-oxo-oxazolidin-3-yl)-4H-benzo[1,4]thiazin-3-one] |  |  |  |  |  | 0.5 µg/mL (≈ 0.989 µM) | 0.063 µg/mL (≈ 0.125 µM) | 4 µg/mL (≈ 7.91 µM) | 0.5 µg/mL (≈ 0.989 µM) | 1 µg/mL (≈ 1.98 µM) |
| COc1ccc(C#N)c(-c2cccc(CNCC[C@@H]3CN(c4ccc5c(c4)NC(=O)CS5)C(=O)O3)c2)c1 [Example 8, 5-methoxy-3′-({2-[(R)-2-oxo-3-(3-oxo-3,4-dihydro-2H-benzo[1,4]thiazin-6-yl)-oxazolidin-5-yl]-ethylamino}-methyl)-biphenyl-2-carbonitrile] |  |  |  |  |  | 0.063 µg/mL (≈ 0.122 µM) | ≤ 0.016 µg/mL | 1 µg/mL (≈ 1.94 µM) | 0.063 µg/mL (≈ 0.122 µM) | 0.25 µg/mL (≈ 0.486 µM) |
| COc1cc(C#N)cc(-c2cccc(CNCC[C@@H]3CN(c4ccc5c(c4)NC(=O)CS5)C(=O)O3)c2)c1 [Example 9, 5-methoxy-3′-({2-[(R)-2-oxo-3-(3-oxo-3,4-dihydro-2H-benzo[1,4]thiazin-6-yl)-oxazolidin-5-yl]-ethylamino}-methyl)-biphenyl-3-carbonitrile] |  |  |  |  |  | 0.031 µg/mL (≈ 0.0602 µM) | ≤ 0.016 µg/mL | 1 µg/mL (≈ 1.94 µM) | 0.031 µg/mL (≈ 0.0602 µM) | 0.25 µg/mL (≈ 0.486 µM) |
| COc1cc(O)cc(-c2cccc(CNCC[C@@H]3CN(c4ccc5c(c4)NC(=O)CS5)C(=O)O3)c2)c1 [Example 10, 6-((R)-5-{2-[(3′-hydroxy-5′-methoxy-biphenyl-3-ylmethyl)-amino]-ethyl}-2-oxo-oxazolidin-3-yl)-4H-benzo[1,4]thiazin-3-one] |  |  |  |  |  | 0.5 µg/mL (≈ 0.989 µM) | ≤ 0.016 µg/mL | 8 µg/mL (≈ 15.8 µM) | 0.5 µg/mL (≈ 0.989 µM) | 0.5 µg/mL (≈ 0.989 µM) |
| COc1cccc(-c2cc(CNCC[C@@H]3CN(c4ccc5c(c4)NC(=O)CS5)C(=O)O3)ccc2F)c1 [Example 11, 6-((R)-5-{2-[(6-fluoro-3′-methoxy-biphenyl-3-ylmethyl)-amino]-ethyl}-2-oxo-oxazolidin-3-yl)-4H-benzo[1,4]thiazin-3-one] |  |  |  |  |  | 1 µg/mL (≈ 1.97 µM) | 0.125 µg/mL (≈ 0.246 µM) | 8 µg/mL (≈ 15.8 µM) | 1 µg/mL (≈ 1.97 µM) | 2 µg/mL (≈ 3.94 µM) |
| COc1cccc(-c2cccc(CNCC[C@@H]3CN(c4ccc5c(c4)NC(=O)CS5)C(=O)O3)c2F)c1 [Example 12, 6-((R)-5-{2-[(2-fluoro-3′-methoxy-biphenyl-3-ylmethyl)-amino]-ethyl}-2-oxo-oxazolidin-3-yl)-4H-benzo[1,4]thiazin-3-one] |  |  |  |  |  | 0.5 µg/mL (≈ 0.985 µM) | 0.063 µg/mL (≈ 0.124 µM) | 2 µg/mL (≈ 3.94 µM) | 0.5 µg/mL (≈ 0.985 µM) | 2 µg/mL (≈ 3.94 µM) |
| COc1cncc(-c2cccc(CNCC[C@@H]3CN(c4ccc5c(c4)NC(=O)CS5)C(=O)O3)c2)c1 [Example 13, 6-((R)-5-{2-[3-(5-methoxy-pyridin-3-yl)-benzylamino]-ethyl}-2-oxo-oxazolidin-3-yl)-4H-benzo[1,4]thiazin-3-one] |  |  |  |  |  | 0.063 µg/mL (≈ 0.128 µM) | ≤ 0.016 µg/mL | 1 µg/mL (≈ 2.04 µM) | 0.063 µg/mL (≈ 0.128 µM) | 0.125 µg/mL (≈ 0.255 µM) |
